{
  "source": "patent US11180523B2",
  "about": "“Design, synthesis and use of synthetic nucleotides comprising charge mass tags” (QuantuMDx Group Limited, priority 2016, dated 2021)",
  "key": {"[1]": {"test_system": "DNA polymerase", "assay": "Primer extension reaction analysed by PAGE gel", "conditions": "incubated at 40° C.; compared with the positive control reaction", "quoted_text": "Competitor oligos, complementary to the templates were also designed to aid gel analysis of a single stranded product. Primer extension reactions were conducted using the following reaction mix:\nFollowing incubated at 40° C. in a hot block reactions were terminated by the addition of a ‘stop buffer’ containing chelators to inhibit polymerase activity in addition to formamide and competitor oligo to encourage denaturation of the double stranded DNA duplex for electrophoresis."}, "[2]": {"test_system": "DNA polymerase", "assay": "Real-time primer extension analysis (Rotorgene Q, SYBR Safe) with melt analysis", "type": "biochemical", "conditions": "single SC-TTP incorporation, compared with standard dNTPs; FIG. 3A", "from_the_text": "As specified the linker chain can play an important role, at least in some embodiments, in enabling the nucleotide to remain a polymerase substrate, as such any modified nucleotides have to be shown to be biologically active. In order to exemplify this and as an example of certain embodiments, a polymerase reaction mix may be used for real-time primer extension analysis with Rotor Template, which requires the incorporation of a single SC-TTP nucleotide followed by a sequence of 44 dCTP, dGTP, dATP nucleotides.\nPrimer extension reactions were monitored using the Rotorgene Q Real-time thermocycler, this allows primer extension to be monitored fluorescently using a dsDNA intercalator (SYBR Safe) with secondary melt analysis to provide further information on product composition. This method can be used with an oligonucleotide primer/template pair designed to allow complete extension of the primer with the incorporation of a single SC-TTP nucleotide. Initially, the experiment was be conducted with a 40° C. incubation and then repeated with a 65° C. incubation (optimum synthesis temperature for most commercial DNA Polymerases). Control reactions with standard dNTPs (positive control) and no dNTPs (negative control) were included, alongside a control(s) for mis-incorporation."}, "[3]": {"assay": "Photocleavage by irradiation with a mercury lamp, followed by LCMS", "type": "physicochemical", "conditions": "methanol and water, approximately 250 nm", "method": "For illustrative purpose, initial testing of 3-(hydroxymethyl)naphthalen-2-ol derivative was carried out. The molecule was dissolved in a mixture of methanol and water, and was then irradiated for 90 min with light from a mercury lamp, which emits light with a wavelength of approximately 250 nm. […] After a further 90 min, there was approximately 20% starting material remaining.\nIn the experiments illustrated in FIG. 2, the molecule was dissolved in a mixture of methanol and water, and was then irradiated for 90 min with light from a mercury lamp, which emits light with a wavelength of approximately 250 nm. […] After a further 90 min, there was approximately 20% starting material remaining. […] The peak at 5 mins may be due to the diol being released."}, "[4]": {"test_system": "DNA polymerase", "conditions": "single base incorporation; overnight, ambient temperature; FIG. 4", "quoted_text": "Sequencing reactions performed on bulk Si/SiO2 surfaces using both 3′ and 5′ surface tethered 30mer DNA, immobilised onto APDMES/PDC modified Si/SiO2 surface in the typical 4×4 array format. Here, Cy3 labelled dCTP was selectively incorporated to a hybridised primer using the covalently bound 30mer probe as a template. The reaction mix was spread over the silicon surface and incubated overnight in a dark humid chamber at ambient temperature. The silicon was then rinsed in 1× Thermopol buffer and dried using a nitrogen line. Fluorescence was visualised using an Olympus BX60 and imaged using Axio vision camera and Axiovision 3.1 software.\nIt should be noted that each spot would contain a number of DNA strands where the primer extension has taken place and therefore the florescence observed is due to several Cy3 dCTP's not just one base."}},
  "data": [
    {"smiles": "[N-]=[N+]=NC(COc1cccc(C(=O)NCCNC(=O)c2cc(C(=O)O)cc(C(=O)O)c2)c1)OCCOCC(=O)NCC#Cc1cn([C@H]2C[C@H](O)[C@@H](COP(=O)(O)OP(=O)(O)OP(=O)(O)O)O2)c(=O)[nH]c1=O", "note": "(some centres unmarked) [SC-TTP, Penta-Triethylammonium Cleavable SCTTP]", "values": [
      {"measurement": "band shift on gel after primer extension", "setting": "[1]", "result": "larger shift"},
      {"measurement": "maximum fluorescence intensity associated with incorporation (primer extension)", "setting": "[2]", "result": "slightly reduced"}
    ]},
    {"smiles": "COC(COCc1ccccc1)NC(=O)OCc1cc2ccccc2cc1O", "note": "(centres unmarked) [(3-Hydroxynaphthalen-2-yl)methyl (2-(benzyloxy)-1-methoxyethyl)carbamate]", "values": [
      {"measurement": "starting material remaining (LCMS)", "setting": "[3]; after a further 90 min irradiation", "result": "approximately 20%"},
      {"measurement": "consumption of the starting material (LCMS)", "setting": "[3]; irradiated for 90 min", "result": 50, "unit": "%"}
    ]},
    {"smiles": "CCN1/C(=C/C=C/C2=[N+](CCCCCC(=O)NCC#Cc3cn(C4CC(O)C(COP(=O)([O-])OP(=O)([O-])OP(=O)([O-])[O-])O4)c(=O)nc3N)c3cc(S(=O)(=O)O)ccc3C2(C)C)C(C)(C)c2ccc(S(=O)(=O)[O-])cc21.[Li+].[Li+].[Li+].[Li+]", "note": "(centres unmarked) [Cy3 labelled dCTP]", "values": [
      {"measurement": "fluorescence of printed array post-sequencing and wash steps", "setting": "[4]", "result": "very weak fluorescence"}
    ]}
  ]
}
